Data reported in patent publication US8357350B2, “Annulus fibrosus detection in intervertebral discs using molecular imaging agents” (General Electric Company, priority 2009, dated 2013).

Experiments:
[1] = tested on: dorsal root ganglia; assay: FM fluorophore uptake, intraoperative fluorescence imaging; assay type: in vivo, mice and rats; conditions: 5 mg/kg mice, 0.5 mg/kg rats IP, 16 hours before imaging; signal normalized to muscle, vs vehicle control; note: key: +: Positive contrast was concluded if the nerve-to-muscle contrast ratio of FM fluorophore-injected animals was elevated relative to control animals
Protocol: (§1) Imaging was carried out at near infrared wavelenghts using a 400- to 700-nm “white” light (0.5 mW/cm^2) and a 725- to 775-nm NIR fluorescence excitation light (5 mW/cm^2). Fluorescence images were collected using exposure times ranging from 500 to 2000 msec. All images collected for comparison between vehicle-injected control animals and FM fluorophore-injected animals had the same exposure time and normalization. Color video images were collected on a separate optical channel using custom designed software. The excitation and emission LEDs and filter used for the FM fluorophores and Pam800 in the intraoperative imaging system are described as follows. For fluorescence excitation of FM 1-43, FM 2-10, FM 1-43FX and Formula IA, sixty 5-mm 470 nm LEDs ([…], Inc., Kyoto, Japan) fitted with 470±20 nm band pass (BP) excitation filters (Chroma Technology, Rockingham, Vt.) in custom holders were used, which produced a fluence rate on the imaging surface of 0.56 mW/cm^2. For fluorescence excitation of Formula II, FM 4-64, FM 4-64FX and FM 5-95, sixty 5-mm 535 nm LEDs fitted with 525±25 nm BP excitation filters were used, which produced a fluence rate on the imaging surface of 0.34 mW/cm^2. A 610±38 nm BP filter was used to detect fluorescence emission of FM 1-43, FM 2-10, Formula II, FM 1-43FX and Formula IA. To detect fluorescence emission of FM 4-64, FM 4-64FX and FM 5-95 a 720 nm long pass (LP) filter was used. For fluorescence excitation of Pam800, 348 5-mm 760 nm LEDs fitted with 764±17 nm BP excitation filters were used, which produced a fluence rate on the imaging surface of 8.73 mW/cm^2 and fluorescence emission was detected using a 824±24 nm BP emission filter. To assess the structure-activity relationship of the FM fluorophores, each molecule was administered at 5 mg/kg to mice and 0.5 mg/kg to rats (n=4 per group) in 10% DMSO and 90% PBS IP 16 hours before imaging with the intraoperative system. The fluorescence signal from the spinal cord, intervertebral discs, dorsal root ganglia, trigeminal ganglia, optic nerve, brain and femoral nerve were normalized to muscle signal in the same image. This normalization ratio was then compared between FM fluorophore-injected animals and vehicle-injected control animals.

[2] = tested on: intervertebral discs; assay: as above; assay type: in vivo, mice and rats
Protocol: as §1

[3] = tested on: trigeminal ganglia; assay: as above; assay type: in vivo, mice and rats; conditions: 5 mg/kg mice, 0.5 mg/kg rats IP, 16 hours before imaging; signal normalized to muscle, vs vehicle control; note: key: +: Positive contrast was concluded if the nerve-to-muscle contrast ratio of FM fluorophore-injected animals was elevated relative to control animals
Protocol: as §1

[4] = tested on: intervertebral discs (annulus fibrosus); assay: Intraoperative imaging of the spine in a pig; assay type: in vivo, Yorkshire pig; conditions: 0.47 mg/kg IV, 5 h
Protocol: Imaging was carried out at near infrared wavelenghts using a 400- to 700-nm “white” light (0.5 mW/cm^2) and a 725- to 775-nm NIR fluorescence excitation light (5 mW/cm^2). Fluorescence images were collected using exposure times ranging from 500 to 2000 msec. All images collected for comparison between vehicle-injected control animals and FM fluorophore-injected animals had the same exposure time and normalization. Color video images were collected on a separate optical channel using custom designed software. The excitation and emission LEDs and filter used for the FM fluorophores and Pam800 in the intraoperative imaging system are described as follows. For fluorescence excitation of FM 1-43, FM 2-10, FM 1-43FX and Formula IA, sixty 5-mm 470 nm LEDs ([…], Inc., Kyoto, Japan) fitted with 470±20 nm band pass (BP) excitation filters (Chroma Technology, Rockingham, Vt.) in custom holders were used, which produced a fluence rate on the imaging surface of 0.56 mW/cm^2. For fluorescence excitation of Formula II, FM 4-64, FM 4-64FX and FM 5-95, sixty 5-mm 535 nm LEDs fitted with 525±25 nm BP excitation filters were used, which produced a fluence rate on the imaging surface of 0.34 mW/cm^2. A 610±38 nm BP filter was used to detect fluorescence emission of FM 1-43, FM 2-10, Formula II, FM 1-43FX and Formula IA. To detect fluorescence emission of FM 4-64, FM 4-64FX and FM 5-95 a 720 nm long pass (LP) filter was used. For fluorescence excitation of Pam800, 348 5-mm 760 nm LEDs fitted with 764±17 nm BP excitation filters were used, which produced a fluence rate on the imaging surface of 8.73 mW/cm^2 and fluorescence emission was detected using a 824±24 nm BP emission filter. FORMULA IA was also evaluated in a Yorkshire pig. […] The pig was monitored under anesthesia during the drug incubation period, after which the animal was sacrificed. […] Tissues from mice, rats and pig were preserved for microscopic assessment and localization of fluorescence signal. […] Exposure times were adjusted between 5 and 2000 ms for fluorescence images.
Throughout, for Uptake: Intervertebral Disc: key: +: Positive contrast was concluded if the nerve-to-muscle contrast ratio of FM fluorophore-injected animals was elevated relative to control animals.

CCCCN(CCCC)c1ccc(/C=C/c2cc[n+](CCC[N+](C)(C)C)cc2)cc1.[Br-].[Br-] [Formula IA, (E)-4-(4-(dibutylamino)styryl)-1-(3-(trimethylammonio)propyl)pyridinium dibromide]
Uptake: Dorsal Root Ganglia [1]: +
Uptake: Intervertebral Disc ([2]; 5 mg/kg mice, 0.5 mg/kg rats IP, 16 hours before imaging, signal normalized to muscle, vs vehicle control): +
contrast in the intervertebral discs ([2]; IP administration to mice and rats): positive contrast
Uptake: Trigeminal Ganglia [3]: +
contrast in the intervertebral discs of the pig [4]: dramatic positive contrast
origin of signal within the disc (sagittal and axial sectioning) [4]: majority of the signal was emanating from the annulus fibrosus, and not the nucleus pulposus
microscopic fluorescence pattern in disc sections ([4]; fluorescence microscopy vs H&E): punctate and linear following the lamellae structures of the annulus fibrosus
